Measured values taken from ChEMBL document CHEMBL3797164, “Transfer of SAR information from hypotensive indazole to indole derivatives acting at α-adrenergic receptors: In vitro and in vivo studies” (Eur J Med Chem, 2016).

What was measured:
Rattus norvegicus [1] = assay: Antihypertensive activity in anesthetized Wistar rat assessed as change in mean arterial blood pressure at 0.1 mg/kg, iv administered as bolus dose after 15 mins (reference value: -0.8 mmHg); format: functional
Rattus norvegicus [2] = assay: Antihypertensive activity in anesthetized Wistar rat assessed as change in mean arterial blood pressure at 0.1 mg/kg, iv administered as bolus dose after 2 mins; format: functional
Rattus norvegicus [3] = assay: Antihypertensive activity in anesthetized Wistar rat assessed as change in mean arterial blood pressure at 0.1 mg/kg, iv administered as bolus dose after 5 mins (reference value: 0.4 mmHg); format: functional
Rattus norvegicus [4] = assay: Antihypertensive activity in anesthetized Wistar rat assessed as change in heart rate at 0.1 mg/kg, iv administered as bolus dose after 15 mins (reference value: -6.0 […]); format: functional
[5] = biological target: T1, Adrenergic receptor alpha-2 (Rattus norvegicus, UniProt P22086+P19328+P22909); assay: Displacement of [3H]RX821002 from Alpha-2 adrenergic receptor in Sprague-Dawley rat brain P2 membranes after […] by liquid scintillation counting
T1 sequence (P22086 whole entry): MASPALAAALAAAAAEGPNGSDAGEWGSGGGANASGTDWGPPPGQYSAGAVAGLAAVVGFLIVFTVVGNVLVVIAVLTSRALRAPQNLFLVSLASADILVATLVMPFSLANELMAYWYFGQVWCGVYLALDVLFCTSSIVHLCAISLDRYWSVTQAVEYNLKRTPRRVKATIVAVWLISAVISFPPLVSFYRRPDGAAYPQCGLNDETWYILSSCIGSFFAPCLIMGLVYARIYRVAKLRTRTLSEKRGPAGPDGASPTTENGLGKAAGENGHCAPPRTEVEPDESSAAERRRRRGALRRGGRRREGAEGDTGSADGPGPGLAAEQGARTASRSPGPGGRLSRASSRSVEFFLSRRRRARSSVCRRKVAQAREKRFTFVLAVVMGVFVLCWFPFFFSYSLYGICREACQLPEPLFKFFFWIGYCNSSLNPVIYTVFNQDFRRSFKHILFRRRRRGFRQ
T1 sequence (P19328 whole entry): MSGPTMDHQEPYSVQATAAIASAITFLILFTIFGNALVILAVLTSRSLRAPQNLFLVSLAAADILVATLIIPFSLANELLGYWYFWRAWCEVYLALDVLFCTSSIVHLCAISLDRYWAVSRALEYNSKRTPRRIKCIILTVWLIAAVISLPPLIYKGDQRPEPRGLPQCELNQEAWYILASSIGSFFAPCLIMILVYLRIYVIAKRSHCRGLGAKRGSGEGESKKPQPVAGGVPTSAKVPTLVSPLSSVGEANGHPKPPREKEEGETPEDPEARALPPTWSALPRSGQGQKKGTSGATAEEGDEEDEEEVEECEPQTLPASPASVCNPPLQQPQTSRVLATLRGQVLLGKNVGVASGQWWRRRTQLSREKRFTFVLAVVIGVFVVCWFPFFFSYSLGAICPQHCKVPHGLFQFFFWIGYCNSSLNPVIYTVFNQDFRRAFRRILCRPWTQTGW
T1 sequence (P22909 whole entry): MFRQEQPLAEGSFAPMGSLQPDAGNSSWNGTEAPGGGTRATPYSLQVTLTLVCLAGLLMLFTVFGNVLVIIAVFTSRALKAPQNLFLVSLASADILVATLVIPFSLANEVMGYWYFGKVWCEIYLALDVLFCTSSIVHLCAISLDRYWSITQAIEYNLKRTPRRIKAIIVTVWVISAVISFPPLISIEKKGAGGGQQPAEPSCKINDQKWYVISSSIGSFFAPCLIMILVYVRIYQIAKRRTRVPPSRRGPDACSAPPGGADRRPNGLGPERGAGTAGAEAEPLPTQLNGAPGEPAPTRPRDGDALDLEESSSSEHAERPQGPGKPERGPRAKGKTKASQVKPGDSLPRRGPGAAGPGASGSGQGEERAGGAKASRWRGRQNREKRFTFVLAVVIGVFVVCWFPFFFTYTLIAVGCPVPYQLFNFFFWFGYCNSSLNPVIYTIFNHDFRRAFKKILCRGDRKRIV

**Q.** For `Cl.Clc1cccc2ccn(CC3=NCCN3)c12`, which Activity (Rattus norvegicus [1]) is on record?
**A.** Its Activity is -36 mmHg.

**Q.** What about the Activity (Rattus norvegicus [2]) of the same compound?
**A.** The Activity was 15.2 mmHg.

**Q.** And the Activity (Rattus norvegicus [3])?
**A.** Its Activity is 7.4 mmHg.

**Q.** What about the Activity (Rattus norvegicus [4]) of the same compound?
**A.** The Activity was -130.7 bpm.

**Q.** What about the Ki [5] of the same compound?
**A.** The Ki was 0.00634 µM.

**Q.** Which Activity (Rattus norvegicus [1]) does the source give for `Br.Cc1cccc2ccn(CC3=NCCN3)c12` here?
**A.** The Activity was -39.2 mmHg.

**Q.** And the Activity (Rattus norvegicus [2])?
**A.** The Activity was 13.4 mmHg.

**Q.** And the Activity (Rattus norvegicus [3])?
**A.** The Activity was -4.2 mmHg.

**Q.** What about the Activity (Rattus norvegicus [4]) of the same compound?
**A.** Its Activity is -107.5 bpm.

**Q.** What about the Ki [5] of the same compound?
**A.** Its Ki is 0.01663 µM.

**Q.** Which results are given for `Cl.c1ccc2c(c1)ccn2CC1=NCCN1`?
**A.** Activity (Rattus norvegicus [1]): 6.9 mmHg; Activity (Rattus norvegicus [2]): 34.1 mmHg; Activity (Rattus norvegicus [3]): 33.7 mmHg; Activity (Rattus norvegicus [4]): -115.2 bpm; Ki [5]: 0.0335 µM
